One series deals with T1, IKK-2 (Homo sapiens, UniProt O14920, S177E/S181E).
T1 sequence (O14920 1-756 S177E/S181E): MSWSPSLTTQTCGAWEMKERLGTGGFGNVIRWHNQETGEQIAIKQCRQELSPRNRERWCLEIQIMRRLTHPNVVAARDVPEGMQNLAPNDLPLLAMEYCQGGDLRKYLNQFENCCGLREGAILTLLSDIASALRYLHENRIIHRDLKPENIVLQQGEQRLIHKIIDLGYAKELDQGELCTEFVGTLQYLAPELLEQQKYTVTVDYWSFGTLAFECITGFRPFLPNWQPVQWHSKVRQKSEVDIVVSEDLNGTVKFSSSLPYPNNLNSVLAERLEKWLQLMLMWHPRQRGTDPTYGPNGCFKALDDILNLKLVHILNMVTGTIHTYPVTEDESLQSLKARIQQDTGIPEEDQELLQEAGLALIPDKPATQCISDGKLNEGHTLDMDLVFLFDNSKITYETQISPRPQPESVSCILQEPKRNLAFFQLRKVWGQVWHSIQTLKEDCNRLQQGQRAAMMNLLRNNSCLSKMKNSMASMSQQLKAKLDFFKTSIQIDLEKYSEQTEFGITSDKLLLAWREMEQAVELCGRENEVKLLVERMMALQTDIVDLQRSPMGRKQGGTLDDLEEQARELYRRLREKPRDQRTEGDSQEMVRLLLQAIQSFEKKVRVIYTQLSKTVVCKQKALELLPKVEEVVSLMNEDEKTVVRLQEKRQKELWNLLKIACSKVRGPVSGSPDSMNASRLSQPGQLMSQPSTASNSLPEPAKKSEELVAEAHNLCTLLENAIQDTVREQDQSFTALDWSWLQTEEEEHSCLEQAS
The experiment in a line: IKK-2 screening assay (IKK2EE 33P Assay / IKK2EE NEMO HTRF Assay). The series is classed as biochemical. Here is the method: The following is an example of an assay that can be used to determine the IKK2EE inhibitory activity of a test compound.
A reaction buffer (pH 7.8) is prepared containing HEPES (20 mM), MgCl2 (10 mM), EDTA (0.1 mM), DTT (1 mM) and Triton X-100 (0.004%). IKK2EE (0.75 μg/ml is used. GST-IKBα (50 μg/ml) is used as substrate. Adenosine 5′-triphosphate (1.5 μM with ^33P-ATP 5 nCi/μl) is used. Reactions are stopped with trichloroacetic acid (6.25%).
Appropriate amounts of test compounds or controls in 100% DMSO are added to the assay plate. A peptide-substrate solution (PSS) is prepared by adding peptide stock to an appropriate volume of buffer (peptide concentration in the PSS will be about 100 μg/ml). An enzyme-peptide solution (EPS) is prepared by adding enzyme stock to an appropriate volume of PSS (the enzyme concentration in the EPS will be about 1 μg/ml). An ATP solution is prepared by adding ATP stock to an appropriate volume of buffer (the ATP concentration will be 15 μM).
85 μl of EPS is added to the assay wells (or PSS to positive control wells) of 96 well polypropylene plates. The ATP solution is then completed by adding ^33P-ATP (to a final concentration of 50 μCi/ml).
The reaction is initiated by adding 10 μl ATP solution to each well. Plates are shaken from about 12 seconds and allowed to incubate at room temperature for 1 hours. 100 μl of trichloroacetic acid solution (12.5%) is added to stop the reaction and the plates are incubated at room temperature for at least 10 minutes. The assay plates are harvested onto a Millipore Multiscreen harvest Plate FC using an appropriate harvester and the harvest plates are washed with 1×PBS solution for about 10 seconds (continuous flow). Harvest plates are allowed to dry thoroughly and the bottoms of the plates are sealed. 20-50 μl of Microscint20 is added to each well, tops are sealed and plates are read using an appropriate scintillation counter.
A reaction buffer (pH 7.6) is prepared containing HEPES (20 mM), MgCl2 (10 mM), EDTA (0.05 mM), DTT (1 mM) and Triton X-100 (0.004%). IKK2EE-NEMO (0.7 μg/ml is used. GST-IKBα (0.5 μg/ml) is used as substrate. Adenosine 5′-triphosphate (1.5 μM) is used. Detection reagents used are mouse anti-P-IKBα (30 ng/ml), Eu anti-mouse (300 ng/ml) and Cy5 anti-GST (11.5 μg/ml). Reactions are stopped with EDTA (20 mM).
An enzyme solution (ES) is prepared by adding enzyme stock to an appropriate volume of buffer (enzyme concentration in the ES will be about 1.7 ng/ml). A detection mixture (DM) is prepared by adding ATP (final conc. 3.75 μM), mouse anti-P-IKBα (final conc. 75 ng/ml), GST-IKBα (final conc. 1.26 μg/ml), Eu anti-mouse in buffer (final conc. 750 ng/ml).
5 μl of compound (solvated in 10% DMSO) is added to assay wells (or 10% DMSO to control wells) of low binding reaction plates. […] ES is added to assay wells (or buffer to control wells) and the reaction is initiated by adding 10 μl DM to all wells. Plates are incubated at room temperature for 45 minutes. Stop mixture is prepared by adding EDTA (final conc. 70 mM) and Cy5 anti-GST (final conc. 40 μg/ml) to an appropriate volume of buffer. Stop mixture is added and plates are shaken for 20 seconds and incubated at room temperature for at least 3 hours (preferably in the dark). Plates are read on an Analyst HT using Multi-Method HTRF.

On to `COc1ccccc1-n1c(=O)[nH]c2c(C(N)=O)nc(-c3ccnc(O)c3)nc21` [Compound 13, 2-(2-hydroxypyridin-4-yl)-9-(2-methoxyphenyl)-8-oxo-8,9-dihydro-7H-purine-6-carboxamide], for which the melting point (in general, the temperature, or range, at which the solid turns liquid) lay within 360 to 362 °C. The IC50 (usually the concentration that gives 50% inhibition) on IKK-2 was above 30 µM.
The like results for `COc1ccccc1-n1c(=O)[nH]c2c(C(N)=O)nc(-c3ccc(O)cc3)nc21` [Compound 8, 2-(4-hydroxyphenyl)-9-(2-methoxyphenyl)-8-oxo-8,9-dihydro-7H-purine-6-carboxamide] were, in that order, 362 to 363 °C and above 30 µM.
The matching figures for `NC(=O)c1nc(-c2cccnc2)nc2c1[nH]c(=O)n2[C@H]1CC[C@H](O)CC1` [Compound 50, 9-(trans-4-Hydroxycyclohexyl)-8-oxo-2-(pyridin-3-yl)-8,9-dihydro-7H-purine-6-carboxamide]: 343 to 345 °C and 0.1 to 5 µM.

The values above are taken from patent US7968556B2, “Heteroaryl compounds, compositions thereof, and methods of treatment therewith” (Signal Pharmaceuticals, LLC, priority 2006, dated 2011).
